Data published in patent publication US12435089B2, “3-oxadiazolyl substituted pyrazolo[1,5,a]pyrimidines for ROS1, NTRK, and ALK mediated diseases” (TYK MEDICINES, INC., priority 2019, dated 2025).
Where two headings read alike, the source gives them in different places.

Assays:
[1] = biological target: TRKA (G677C) (Homo sapiens, UniProt P04629, G667C); experiment: Radio-tagged HotSpot kinase assay, TRKA (G677C); format: biochemical; settings: 33P-ATP, 120 min, room temperature
Procedure: (§2) Inhibition of protein kinase activity by compounds was carried out on the Radio-tagged HotSpot kinase experimental platform of Reaction Biology Corporation. Fresh reaction solution (20 mM HEPESpH 7.5, 10 mM MgCl2, 1 mM EGTA, 0.02% Brij35, 0.02 mg/ml BSA, 0.1 mM Na3VO4, 2 mM DTT, 1% DMSO) containing corresponding substrates was prepared, cofactor and kinase to be tested were added into the above solution and mixed gently. Echo550 pipetting system was used to add the test compound DMSO solution to each well (the blank control group was added with the corresponding volume of DMSO), then 33P-ATP (with a final specific activity of 0.01 μCi/μL) was added to start the reaction. The reaction solution was incubated at room temperature for 120 minutes.

[2] = biological target: TRKB (Homo sapiens (Human), UniProt Q16620); experiment: Radio-tagged HotSpot kinase assay, TRKB; format: biochemical; settings: 33P-ATP, 120 min, room temperature
Procedure: as §2

[3] = biological target: ALK (Homo sapiens (Human), UniProt Q9UM73); experiment: Radio-tagged HotSpot kinase assay, ALK; format: biochemical; settings: 33P-ATP, 120 min, room temperature
Sequence of ALK (Q9UM73 19-1620): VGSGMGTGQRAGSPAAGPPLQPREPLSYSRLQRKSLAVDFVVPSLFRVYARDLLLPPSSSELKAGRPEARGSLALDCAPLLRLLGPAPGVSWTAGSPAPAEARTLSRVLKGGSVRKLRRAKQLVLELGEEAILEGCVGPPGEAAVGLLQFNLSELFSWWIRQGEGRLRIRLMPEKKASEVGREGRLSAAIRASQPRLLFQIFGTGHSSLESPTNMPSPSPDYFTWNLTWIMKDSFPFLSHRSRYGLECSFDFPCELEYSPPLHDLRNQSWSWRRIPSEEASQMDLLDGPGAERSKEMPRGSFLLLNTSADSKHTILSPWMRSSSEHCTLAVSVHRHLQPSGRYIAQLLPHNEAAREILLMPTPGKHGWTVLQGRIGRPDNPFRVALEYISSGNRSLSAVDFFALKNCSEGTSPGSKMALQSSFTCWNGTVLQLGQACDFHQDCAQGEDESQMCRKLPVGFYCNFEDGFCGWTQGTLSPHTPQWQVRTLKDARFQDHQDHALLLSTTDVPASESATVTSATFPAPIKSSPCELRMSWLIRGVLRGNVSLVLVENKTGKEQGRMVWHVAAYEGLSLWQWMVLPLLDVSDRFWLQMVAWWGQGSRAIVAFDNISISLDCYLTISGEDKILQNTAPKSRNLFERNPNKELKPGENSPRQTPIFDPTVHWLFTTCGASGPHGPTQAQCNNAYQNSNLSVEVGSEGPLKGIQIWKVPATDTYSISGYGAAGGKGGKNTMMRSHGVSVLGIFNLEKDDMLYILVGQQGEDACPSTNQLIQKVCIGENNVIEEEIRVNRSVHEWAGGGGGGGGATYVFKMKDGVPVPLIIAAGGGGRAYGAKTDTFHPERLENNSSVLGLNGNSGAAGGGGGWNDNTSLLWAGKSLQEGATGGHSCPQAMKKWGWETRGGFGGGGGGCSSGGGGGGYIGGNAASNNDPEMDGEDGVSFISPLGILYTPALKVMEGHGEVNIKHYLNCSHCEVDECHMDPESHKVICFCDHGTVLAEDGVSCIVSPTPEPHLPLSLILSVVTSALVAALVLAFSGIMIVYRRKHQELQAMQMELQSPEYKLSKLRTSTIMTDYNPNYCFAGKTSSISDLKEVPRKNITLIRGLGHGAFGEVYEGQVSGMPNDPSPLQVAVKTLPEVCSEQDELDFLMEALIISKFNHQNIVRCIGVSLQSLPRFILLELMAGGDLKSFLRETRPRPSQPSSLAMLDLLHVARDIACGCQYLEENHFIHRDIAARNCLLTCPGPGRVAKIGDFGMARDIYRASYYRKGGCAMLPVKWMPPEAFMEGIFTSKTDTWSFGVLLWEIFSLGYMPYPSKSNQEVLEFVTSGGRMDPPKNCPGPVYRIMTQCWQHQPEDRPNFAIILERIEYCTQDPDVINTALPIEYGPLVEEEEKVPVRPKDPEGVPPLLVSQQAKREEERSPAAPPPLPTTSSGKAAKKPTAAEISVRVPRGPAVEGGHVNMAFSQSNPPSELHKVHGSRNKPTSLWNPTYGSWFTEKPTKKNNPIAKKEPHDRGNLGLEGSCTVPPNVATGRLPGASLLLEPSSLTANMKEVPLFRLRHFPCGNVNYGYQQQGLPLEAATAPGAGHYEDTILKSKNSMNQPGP
Procedure: as §2

[4] = tested on: Ba/F3-CD74-ROS1; experiment: Inhibition of cell proliferation (CellTiter-Glo), Ba/F3-CD74-ROS1; format: cell-based; settings: 72 hours
Procedure: (§1) The experiment of inhibiting cell proliferation by compounds was carried out in Hefei Zhongkeprecedo Biomedical Technology Co., Ltd. The Ba/F3 engineered cell line stably transfected with different kinase genes was recovered with RPMI 1640 medium (Biological Industries, Israel)+10% fetal bovine serum (Biological Industries, Israel)+1% double antibody (Penicillin Streptomycin solution, Coring, USA) and cultivated two generations. The logarithmic growth phase cell suspension was taken, and 2000 cells/well were inoculated on 96-well white cell culture plate (Corning 3917, NY, USA) with a volume of 95 μL per well. 5 μL of 20×DMSO solution of the compound to be tested was added into the culture plate containing 95 μL of cell suspension. The blank control group was added with corresponding volume of DMSO, mixed well, and incubated in a 5% CO2 incubator at 37° C. for 72 hours. CellTiter-Glo was used to detect cell viability.

[5] = tested on: Ba/F3-CD74-ROS1-G2032R; experiment: Inhibition of cell proliferation (CellTiter-Glo), Ba/F3-CD74-ROS1-G2032R; format: cell-based; settings: 72 hours;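 also: Ba/F3 cell line expressing the CD74-ROS1 fusion with G2032R mutation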
Procedure: as §1

[6] = tested on: Ba/F3-LMNA-NTRK1; experiment: Inhibition of cell proliferation (CellTiter-Glo), Ba/F3-LMNA-NTRK1; format: cell-based; settings: 72 hours
Procedure: as §1

[7] = tested on: Ba/F3-LMNA-NTRK1-G595R; experiment: Inhibition of cell proliferation (CellTiter-Glo), Ba/F3-LMNA-NTRK1-G595R; format: cell-based; settings: 72 hours
Procedure: as §1

[8] = biological target: TRKC (Homo sapiens (Human), UniProt Q16288); experiment: Radio-tagged HotSpot kinase assay, TRKC; format: biochemical; settings: 33P-ATP, 120 min, room temperature
Procedure: as §2

[9] = biological target: ALK (G1202R) (Homo sapiens (Human), UniProt Q9UM73, G1202R); experiment: Radio-tagged HotSpot kinase assay, ALK (G1202R); format: biochemical; settings: 33P-ATP, 120 min, room temperature
Sequence of ALK (G1202R) (Q9UM73 19-1620 G1202R): as the sequence (Q9UM73 19-1620) above, with G1184R counted along it
Procedure: as §2

[10] = biological target: ROS1 (Homo sapiens (Human), UniProt P08922); experiment: Radio-tagged HotSpot kinase assay, ROS1
Sequence of ROS1 (P08922 28-2347): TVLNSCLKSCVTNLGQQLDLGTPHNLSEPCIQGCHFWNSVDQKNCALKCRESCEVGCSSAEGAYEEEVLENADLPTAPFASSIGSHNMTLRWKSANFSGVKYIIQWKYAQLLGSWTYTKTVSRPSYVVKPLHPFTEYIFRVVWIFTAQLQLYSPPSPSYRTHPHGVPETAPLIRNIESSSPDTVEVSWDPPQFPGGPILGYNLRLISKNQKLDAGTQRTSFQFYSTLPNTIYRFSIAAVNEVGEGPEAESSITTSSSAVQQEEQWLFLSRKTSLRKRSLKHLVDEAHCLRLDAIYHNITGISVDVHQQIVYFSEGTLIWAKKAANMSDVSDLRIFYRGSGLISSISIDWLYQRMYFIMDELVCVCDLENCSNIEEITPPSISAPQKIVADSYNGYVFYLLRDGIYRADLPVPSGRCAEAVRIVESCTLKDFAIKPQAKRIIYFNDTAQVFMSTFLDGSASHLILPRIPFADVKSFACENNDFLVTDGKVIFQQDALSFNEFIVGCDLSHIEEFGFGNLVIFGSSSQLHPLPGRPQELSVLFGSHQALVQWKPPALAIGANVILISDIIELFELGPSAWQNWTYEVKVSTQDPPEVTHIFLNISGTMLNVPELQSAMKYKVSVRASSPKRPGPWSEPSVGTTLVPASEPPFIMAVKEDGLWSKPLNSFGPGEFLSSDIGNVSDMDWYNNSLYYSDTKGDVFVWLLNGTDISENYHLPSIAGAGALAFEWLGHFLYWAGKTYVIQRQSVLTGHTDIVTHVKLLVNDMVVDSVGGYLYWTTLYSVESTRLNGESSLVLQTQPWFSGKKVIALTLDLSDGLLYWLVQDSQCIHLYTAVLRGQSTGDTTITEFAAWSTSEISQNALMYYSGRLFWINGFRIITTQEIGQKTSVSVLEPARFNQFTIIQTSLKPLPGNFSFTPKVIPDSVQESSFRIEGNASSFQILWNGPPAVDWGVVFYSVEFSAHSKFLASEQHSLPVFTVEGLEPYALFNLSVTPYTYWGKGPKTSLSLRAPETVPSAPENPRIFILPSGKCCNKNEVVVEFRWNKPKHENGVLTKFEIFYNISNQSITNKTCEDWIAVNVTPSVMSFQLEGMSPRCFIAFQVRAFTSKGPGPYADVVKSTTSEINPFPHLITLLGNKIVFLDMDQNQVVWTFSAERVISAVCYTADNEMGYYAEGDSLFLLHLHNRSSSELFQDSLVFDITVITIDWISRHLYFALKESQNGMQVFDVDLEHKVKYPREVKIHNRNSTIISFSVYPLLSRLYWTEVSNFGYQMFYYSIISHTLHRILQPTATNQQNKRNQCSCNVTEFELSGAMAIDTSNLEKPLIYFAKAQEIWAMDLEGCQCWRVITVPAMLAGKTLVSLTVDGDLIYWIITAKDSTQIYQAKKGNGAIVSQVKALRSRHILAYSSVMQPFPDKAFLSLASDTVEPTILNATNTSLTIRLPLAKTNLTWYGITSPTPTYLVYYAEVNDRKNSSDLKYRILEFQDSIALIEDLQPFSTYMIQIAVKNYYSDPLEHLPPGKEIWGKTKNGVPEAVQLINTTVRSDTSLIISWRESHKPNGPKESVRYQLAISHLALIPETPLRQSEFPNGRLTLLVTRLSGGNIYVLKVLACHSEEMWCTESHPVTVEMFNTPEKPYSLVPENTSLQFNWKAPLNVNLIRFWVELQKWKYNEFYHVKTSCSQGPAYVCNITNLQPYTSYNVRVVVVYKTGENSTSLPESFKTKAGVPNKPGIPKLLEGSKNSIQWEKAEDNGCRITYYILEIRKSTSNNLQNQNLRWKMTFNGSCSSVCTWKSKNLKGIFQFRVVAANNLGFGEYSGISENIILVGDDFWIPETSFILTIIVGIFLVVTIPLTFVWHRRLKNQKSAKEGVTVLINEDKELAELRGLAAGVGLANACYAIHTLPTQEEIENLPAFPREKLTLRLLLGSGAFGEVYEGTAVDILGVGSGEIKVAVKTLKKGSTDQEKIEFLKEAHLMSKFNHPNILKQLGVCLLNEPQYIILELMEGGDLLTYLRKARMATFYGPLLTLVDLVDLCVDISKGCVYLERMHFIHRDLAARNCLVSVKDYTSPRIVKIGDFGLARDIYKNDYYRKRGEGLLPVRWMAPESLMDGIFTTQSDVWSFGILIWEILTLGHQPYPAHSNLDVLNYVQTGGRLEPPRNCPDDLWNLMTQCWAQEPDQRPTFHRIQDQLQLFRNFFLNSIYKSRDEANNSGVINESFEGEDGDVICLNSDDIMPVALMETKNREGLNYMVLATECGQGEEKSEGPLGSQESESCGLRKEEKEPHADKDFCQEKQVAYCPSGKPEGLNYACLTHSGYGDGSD
Procedure: as §2

[11] = biological target: TRKA (Homo sapiens (Human), UniProt P04629); experiment: Radio-tagged HotSpot kinase assay, TRKA;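 also: kinase activity measured through incorporation of 33P from labelled ATP into substrate, 120 min at room temperature, relative to a DMSO-only blank control, reported as inhibition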
Sequence of TRKA (P04629 33-796): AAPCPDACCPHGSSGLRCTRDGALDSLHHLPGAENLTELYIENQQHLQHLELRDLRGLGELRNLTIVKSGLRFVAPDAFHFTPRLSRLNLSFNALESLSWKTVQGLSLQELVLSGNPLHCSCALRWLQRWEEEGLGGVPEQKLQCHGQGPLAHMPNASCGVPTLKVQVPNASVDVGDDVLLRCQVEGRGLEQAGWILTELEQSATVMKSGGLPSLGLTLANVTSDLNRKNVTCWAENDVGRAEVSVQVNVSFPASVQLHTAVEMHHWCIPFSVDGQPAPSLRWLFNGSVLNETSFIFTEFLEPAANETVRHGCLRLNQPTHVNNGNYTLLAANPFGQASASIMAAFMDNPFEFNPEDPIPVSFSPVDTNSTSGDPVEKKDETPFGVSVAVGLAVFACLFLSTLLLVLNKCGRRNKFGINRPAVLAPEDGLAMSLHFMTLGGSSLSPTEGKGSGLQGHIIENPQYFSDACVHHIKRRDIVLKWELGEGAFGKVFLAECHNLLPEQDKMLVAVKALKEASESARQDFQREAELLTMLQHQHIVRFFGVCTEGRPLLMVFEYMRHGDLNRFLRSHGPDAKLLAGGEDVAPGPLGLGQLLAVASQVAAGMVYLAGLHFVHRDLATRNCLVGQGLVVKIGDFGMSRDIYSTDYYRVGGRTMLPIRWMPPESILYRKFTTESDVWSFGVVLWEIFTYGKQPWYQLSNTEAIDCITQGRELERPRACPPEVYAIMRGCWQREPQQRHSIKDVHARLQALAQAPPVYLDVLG
Procedure: as §2

[12] = biological target: TRKA (G595R) (Homo sapiens (Human), UniProt P04629, G595R); experiment: Radio-tagged HotSpot kinase assay, TRKA (G595R)
Sequence of TRKA (G595R) (P04629 33-796 G595R): as the sequence (P04629 33-796) above, with G563R counted along it
Procedure: as §2

[13] = biological target: ROS1 (G2032R) (Homo sapiens (Human), UniProt P08922, G2032R); experiment: Radio-tagged HotSpot kinase assay, ROS1 (G2032R)
Sequence of ROS1 (G2032R) (P08922 28-2347 G2032R): as the sequence (P08922 28-2347) above, with G2005R counted along it
Procedure: as §2

[14] = tested on: Ba/F3-TEL-ALK-G1202R; experiment: Inhibition of cell proliferation (CellTiter-Glo), Ba/F3-TEL-ALK-G1202R; format: cell-based; settings: 72 hours
Procedure: as §1

[15] = read-out: ROS1 (IC50/nM), 33P-ATP, 120 min, room temperature
[16] = read-out: ROS1 (G2032R) (IC50/nM), 33P-ATP, 120 min, room temperature
[17] = read-out: TRKA (IC50/nM), 33P-ATP, 120 min, room temperature

Sequence of TRKA (G677C) (P04629 33-796 G667C limits assumed): as the sequence (P04629 33-796) above, with G635C counted along it

IC50 [1]	IC50 [2]	IC50 [3]	IC50 [4]	IC50 [5]	IC50 [6]	IC50 [7]	IC50 [8]	IC50 [9]	IC50 [10, 15]	IC50 [11]	IC50 [12]	IC50 [13, 16]	IC50 [13]	IC50 [10]	IC50 [11, 17]	IC50 [14]	Compound
50 to 500 nM	0.5 to 5 nM	50 to 500 nM	26.2 nM	155 nM	100 nM	890 nM											C[C@@H](Oc1ccn2ncc(C3=NOC(C)(C)N3)c2n1)c1c(Cl)ccc(F)c1Cl [Example 9]
5 to 50 nM	< 0.5 nM	0.5 to 5 nM					< 0.5 nM	5 to 50 nM	< 0.5 nM	0.5 to 5 nM	5 to 50 nM	< 0.5 nM					C[C@@H](Nc1ccn2ncc(C3=NOC(C)(C)N3)c2n1)c1cc(F)ccc1F [Example 5]
50 to 500 nM	0.5 to 5 nM	50 to 500 nM					< 0.5 nM	5 to 50 nM	< 0.5 nM	0.5 to 5 nM	5 to 50 nM		0.5 to 5 nM				CCc1ccc(F)cc1[C@@H](C)Nc1ccn2ncc(C3=NOC(C)(C)N3)c2n1 [Example 52]
	0.5 to 5 nM	5 to 50 nM					0.5 to 5 nM			0.5 to 5 nM				0.5 to 5 nM			Cc1ccc(F)cc1[C@@H](C)Nc1ccn2ncc(C3=NOC(C)(C)N3)c2n1 [Example 42]
5 to 50 nM	0.5 to 5 nM						0.5 to 5 nM	5 to 50 nM		0.5 to 5 nM	5 to 50 nM		0.5 to 5 nM	0.5 to 5 nM			C[C@@H](Nc1ccn2ncc(C3=NOC(C)(C)N3)c2n1)c1c(Cl)ccc(F)c1Cl [Example 14]
	0.5 to 5 nM	5 to 50 nM					0.5 to 5 nM			0.5 to 5 nM				0.5 to 5 nM			C[C@@H](Nc1ccn2ncc(C3=NOC(C)(C)N3)c2n1)c1ccccc1Cl [Example 26]
5 to 50 nM	< 0.5 nM	5 to 50 nM					< 0.5 nM	0.5 to 5 nM	< 0.5 nM		0.5 to 5 nM	< 0.5 nM			< 0.5 nM		COc1ncc(F)cc1[C@@H](C)Nc1ccn2ncc(C3=NOC(C)(C)N3)c2n1 [Example 28]
	0.5 to 5 nM		32.2 nM	185 nM	76.9 nM	110 nM	0.5 to 5 nM			0.5 to 5 nM	0.5 to 5 nM		0.5 to 5 nM	0.5 to 5 nM			COc1ccc(F)cc1[C@@H](C)Oc1ccn2ncc(C3=NOC(C)(C)N3)c2n1 [Example 71]
			2.8 nM	23.5 nM	2.3 nM	5.1 nM											C[C@@H](Nc1ccn2ncc(C3=NOC(C)(C)N3)c2n1)c1cc(F)ccc1OC(F)(F)F [Example 17]
	0.5 to 5 nM	5 to 50 nM					0.5 to 5 nM			0.5 to 5 nM				0.5 to 5 nM			C[C@@H](Nc1ccn2ncc(C3=NOC(C)(C)N3)c2n1)c1cc(F)cc(F)c1 [Example 27]
	< 0.5 nM		6.6 nM	47.9 nM	26.7 nM	25.4 nM	< 0.5 nM		< 0.5 nM	0.5 to 5 nM	0.5 to 5 nM	< 0.5 nM					COC(=O)N1CCC2(CC1)NC(c1cnn3ccc(N[C@H](C)c4cc(F)ccc4OC)nc13)=NO2 [Example 55]
5 to 50 nM	< 0.5 nM	5 to 50 nM					< 0.5 nM	0.5 to 5 nM	< 0.5 nM	0.5 to 5 nM	5 to 50 nM	< 0.5 nM					CC(C)Oc1ccc(F)cc1[C@@H](C)Nc1ccn2ncc(C3=NOC(C)(C)N3)c2n1 [Example 51]
5 to 50 nM	0.5 to 5 nM						0.5 to 5 nM	5 to 50 nM		0.5 to 5 nM	5 to 50 nM		0.5 to 5 nM	0.5 to 5 nM			C[C@@H](Nc1ccn2ncc(C3=NOC(C)(C)N3)c2n1)c1cc(F)ccc1Br [Example 23]
			2.8 nM	10.3 nM	2.1 nM	3.3 nM											C[C@@H](Nc1ccn2ncc(C3=NOC(C)(C)N3)c2n1)c1cc(F)ccc1OCC(F)(F)F [Example 3]
0.5 to 5 nM	< 0.5 nM	5 to 50 nM					< 0.5 nM	0.5 to 5 nM	< 0.5 nM	0.5 to 5 nM	0.5 to 5 nM	< 0.5 nM					CCOc1ccc(F)cc1[C@@H](C)Nc1ccn2ncc(C3=NOC(C)(C)N3)c2n1 [Example 50]
			4.9 nM	34.8 nM	3.8 nM	8.6 nM											C[C@@H](Nc1ccn2ncc(C3=NOC(C)(C)N3)c2n1)c1cc(F)cnc1OCC(F)(F)F [Example 15]
5 to 50 nM		0.5 to 5 nM						5 to 50 nM			5 to 50 nM						[2H]C([2H])([2H])Oc1ccc(F)cc1[C@@H](C)Nc1ccn2ncc(C3=NOC(C)(C)N3)c2n1 [Example 4]
			5.2 nM	45.9 nM	5.1 nM	12.5 nM											C[C@@H](Nc1ccn2ncc(C3=NOC(C)(C)N3)c2n1)c1cc(F)cc(F)c1F [Example 13]
			15.7 nM	120 nM	25.9 nM	386 nM											C[C@@H](Nc1ccn2ncc(C3=NOC(C)(C)N3)c2n1)c1cc(F)ccc1C(F)(F)F [Example 33]
0.5 to 5 nM	< 0.5 nM	5 to 50 nM	2.8 nM	7.9 nM	1.3 nM	2.2 nM	< 0.5 nM	0.5 to 5 nM	< 0.5 nM		0.5 to 5 nM	< 0.5 nM			< 0.5 nM	87.5 nM	COc1ccc(F)cc1[C@@H](C)Nc1ccn2ncc(C3=NOC(C)(C)N3)c2n1 [Example 10]
0.5 to 5 nM			6.9 nM	59.2 nM	14.2 nM	13.9 nM											COc1ccc(F)cc1[C@@H](C)Nc1ccn2ncc(C3=NOC4(CCCC4)N3)c2n1 [Example 44]
			2.2 nM	16.3 nM	5.8 nM	7 nM											COc1c(F)cc(F)cc1[C@@H](C)Nc1ccn2ncc(C3=NOC(C)(C)N3)c2n1 [Example 30]
